Results as given in Sander's compilation of Henry's law constants.
“And” between values parts separate entries of the source, which are not always exact repeats. Equal values may be shown once.

Experiment: Henry solubility constant Hcp at 298.15 K (mol/(m3 Pa))

In the case of CCCCCC(=O)O [hexanoic acid], the “Henry solubility constant Hcp” value (reference: Khan and Brimblecombe (1992)) is reported as 13, the “Henry solubility constant Hcp” value (reference: Khan et al. (1995)) is reported as 13 and the “Henry solubility constant Hcp” value (reference: Kim and Kim (2016)) is reported as 9.9. For the same compound, the “Henry solubility constant Hcp” value (reference: von Hartungen et al. (2004)) was 7.5.
For CN(C)c1nc(=O)n(C2CCCCC2)c(=O)n1C [hexazinone], the “Henry solubility constant Hcp” value (reference: Mabury and Crosby (1996)) was greater than 99.
In the case of CCCCCCOC(C)=O [hexyl ethanoate], the “Henry solubility constant Hcp” value (reference: Souchon et al. (2004)) is reported as 0.014.
In the case of OCOO [hydroxymethyl hydroperoxide], the “Henry solubility constant Hcp” value (reference: O’Sullivan et al. (1996)) is reported as 16000, the “Henry solubility constant Hcp” value (reference: Staffelbach and Kok (1993)) is reported as 16000 and the “Henry solubility constant Hcp” value (reference: Zhou and Lee (1992)) is reported as 4700.
With [CH3][Hg+].[OH-] [hydroxymethylmercury] the “Henry solubility constant Hcp” value (reference: Iverfeldt and Persson (1985)) was 980.
In the case of II [iodine (molecular)], the “Henry solubility constant Hcp” value (reference: Eguchi et al. (1973)) is reported as 0.028.
For N=C=O [isocyanic acid], the “Henry solubility constant Hcp” value (reference: Roberts et al. (2011)) was 0.21.
With [Kr] [krypton] the “Henry solubility constant Hcp” value (reference: Cosgrove and Walkley (1981)) was 2.6e-05, the “Henry solubility constant Hcp” value (reference: Crovetto et al. (1982)) was 2.5e-05 and the “Henry solubility constant Hcp” value (reference: Krause and Benson (1989)) was 2.5e-05. The “Henry solubility constant Hcp” value (reference: Morrison and Johnstone (1954)) was 2.4e-05 and the “Henry solubility constant Hcp” value (reference: von Antropoff (1910)) was 3.4e-05 and 2.8e-05.
With C=C(C)C1CCC2(C)OC2C1 (configuration not stated) [limonene oxide] the “Henry solubility constant Hcp” value (reference: Fichan et al. (1999)) was 0.056.
For [Hg] [mercury], the “Henry solubility constant Hcp” value (reference: Andersson et al. (2008)) was 0.0013 and the “Henry solubility constant Hcp” value (reference: Sanemasa (1975)) was 0.0013.
For CN [methanamine], the “Henry solubility constant Hcp” value (reference: Christie and Crisp (1967)) was 0.89.
For CS [methanethiol], the “Henry solubility constant Hcp” value (reference: De Bruyn et al. (1995b)) was 0.002 and the “Henry solubility constant Hcp” value (reference: Hine and Weimar (1965)) was 0.0033.
For COc1ccccc1 [methoxybenzene], the “Henry solubility constant Hcp” value (reference: Brockbank et al. (2013)) was 0.029.
In the case of COC(=O)C(C)O (configuration not stated) [methyl 2-hydroxypropanoate], the “Henry solubility constant Hcp” value (reference: Sanz and Gmehling (2005)) is reported as 9.1.
In the case of CCCC(=O)OC [methyl butanoate], the “Henry solubility constant Hcp” value (reference: Aprea et al. (2007)) is reported as 0.037 and the “Henry solubility constant Hcp” value (reference: Ioffe et al. (1984)) is reported as 0.036.
In the case of COC(C)=O [methyl ethanoate], the “Henry solubility constant Hcp” value (reference: Arp and Schmidt (2004)) is reported as 0.066, the “Henry solubility constant Hcp” value (reference: Butler and Ramchandani (1935)) is reported as 0.11 and the “Henry solubility constant Hcp” value (reference: Fenclová et al. (2014)) is reported as 0.081. The “Henry solubility constant Hcp” value (reference: Ioffe et al. (1984)) was 0.077, the “Henry solubility constant Hcp” value (reference: Kieckbusch and King (1979b)) was 0.077 and the “Henry solubility constant Hcp” value (reference: McKeown and Stowell (1927)) was 0.087.
With CCCCCC(=O)OC [methyl hexanoate] the “Henry solubility constant Hcp” value (reference: Aprea et al. (2007)) was 0.019.
For CN=C=O [methyl isocyanate], the “Henry solubility constant Hcp” value (reference: Roberts and Liu (2019)) was 0.013.
For CN=C=S [methyl isothiocyanate], the “Henry solubility constant Hcp” value (reference: Worthington and Wade (2007)) was 0.16.
With CC/C=C/C[C@@H]1C(=O)CC[C@H]1CC(=O)OC [methyl jasmonate] the “Henry solubility constant Hcp” value (reference: Karl et al. (2008)) was 50.
In the case of CCCCCCCC(=O)OC [methyl octanoate], the “Henry solubility constant Hcp” value (reference: Aprea et al. (2007)) is reported as 0.0099.
With CCC(=O)OC [methyl propanoate] the “Henry solubility constant Hcp” value (reference: Ioffe et al. (1984)) was 0.052.
In the case of CC1CCCCC1 [methylcyclohexane], the “Henry solubility constant Hcp” value (reference: Ramachandran et al. (1996)) is reported as 0.00015.
With ClC1(Cl)C2(Cl)C3(Cl)C4(Cl)C(Cl)(Cl)C5(Cl)C3(Cl)C1(Cl)C5(Cl)C24Cl (configuration not stated) [mirex] the “Henry solubility constant Hcp” value (reference: Yin and Hassett (1986)) was 0.012.
With O=[N+]([O-])c1ccccc1 [nitrobenzene] the “Henry solubility constant Hcp” value (reference: Warner et al. (1980)) was 0.41.
In the case of ClN(Cl)Cl [nitrogen trichloride], the “Henry solubility constant Hcp” value (reference: Holzwarth et al. (1984)) is reported as 0.00099.
With FN(F)F [nitrogen trifluoride] the “Henry solubility constant Hcp” value (reference: Ashton et al. (1968)) was 7.8e-06 and the “Henry solubility constant Hcp” value (reference: Dean et al. (1973)) was 7.7e-06.
For [O][N+](=O)[O-] [nitrogen trioxide], the “Henry solubility constant Hcp” value (reference: Thomas et al. (1998)) was 0.018.
For O=NCl [nitrosyl chloride], the “Henry solubility constant Hcp” value (reference: Scheer et al. (1997)) was greater than 0.00049.
For O=NO [nitrous acid], the “Henry solubility constant Hcp” value (reference: Becker et al. (1996)) was 0.47, the “Henry solubility constant Hcp” value (reference: Becker et al. (1998)) was 0.47 and the “Henry solubility constant Hcp” value (reference: Komiyama and Inoue (1978)) was 0.37. For the same compound, the “Henry solubility constant Hcp” value (reference: Park and Lee (1988)) was 0.48.
For CCCCCCCCC=O [nonanal], the “Henry solubility constant Hcp” value (reference: Buttery et al. (1965)) was 0.071.
With CCCCCCCCC [nonane] the “Henry solubility constant Hcp” value (reference: Jönsson et al. (1982)) was 1.8e-06 and the “Henry solubility constant Hcp” value (reference: Park et al. (1997)) was 1.9e-06.
With FC1(F)C(F)(F)C(F)(F)C1(F)F [octafluorocyclobutane] the “Henry solubility constant Hcp” value (reference: Park et al. (1982)) was 1.2e-06, the “Henry solubility constant Hcp” value (reference: Scharlin and Battino (1994)) was 1.3e-06 and the “Henry solubility constant Hcp” value (reference: Wen and Muccitelli (1979)) was 1.2e-06.
